According to the supplement of paper PMC10331698:
± gives the standard deviation of the averaged measurements.

Tests used:
Assay in all cases: level (log10 ratio to DMSO vehicle control); higher = higher biomarker level / cell amount than vehicle control
Conditions in all cases: in DMSO
[1] = compound: O=S(=O)(O)C(F)(F)C(F)(F)C(F)(F)C(F)(F)F [Perfluorobutanesulfonic acid]
Experimental: (§1)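 BioMAP Diversity Plus panel of 12 human primary cell co-culture systems (3C, 4H, LPS, SAg, BT, BF4T, BE3C, CASM3C, HDF3CGF, KF3CT, MyoF, Mphg). Compounds were added 1 h before stimulation and left for 24 h (MyoF 48 h; BT 72 h for soluble read-outs or 6 d for IgG). Biomarkers were read by ELISA, cytotoxicity by SRB, PBMC viability and proliferation by Alamar Blue. Each well value was divided by the mean of 8 DMSO control wells on the same plate and log10 transformed; duplicate blinded samples were tested at 4 concentrations.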

[2] = compound: O=C(O)C(F)(F)C(F)(F)C(F)(F)C(F)(F)C(F)(F)C(F)(F)C(F)(F)C(F)(F)Cl [9-Chloro-perfluorononanoic acid]
Experimental: as §1

Perfluorooctanamidine = compound: N=C(N)C(F)(F)C(F)(F)C(F)(F)C(F)(F)C(F)(F)C(F)(F)C(F)(F)F [Perfluorooctanamidine]
Experimental: as §1

1-(Perfluorohexyl)octane = compound: CCCCCCCCC(F)(F)C(F)(F)C(F)(F)C(F)(F)C(F)(F)C(F)(F)F [1-(Perfluorohexyl)octane]
Experimental: as §1

Row | Test System | level (log10) ([1]; 6700 nM) | level (log10) ([1]; 20000 nM) | level (log10) ([1]; 60000 nM) | level (log10) ([2]; 6700 nM) | level (log10) ([2]; 20000 nM) | level (log10) (Perfluorooctanamidine; 6700 nM) | level (log10) (Perfluorooctanamidine; 20000 nM) | level (log10) (Perfluorooctanamidine; 60000 nM) | level (log10) (1-(Perfluorohexyl)octane; 6700 nM) | level (log10) (1-(Perfluorohexyl)octane; 20000 nM)
1 | SAg:CCL2/MCP-1 | -0.0225 ± 0.0092 | -0.0075 ± 0.0064 | 0.0185 ± 0.033 | 0.017 ± 0.021 | -0.0055 ± 0.005 | -0.004 ± 0.0014 | 0.0225 ± 0.005 | -0.015 | -0.01 | 0.0015 ± 0.018
2 | SAg:CD38 | -0.005 ± 0.0028 | -0.0085 ± 0.0064 | -0.0155 ± 0.00071 | -0.02 ± 0.021 | -0.0315 ± 0.028 | 0.009 ± 0.017 | 0.001 ± 0.013 | -0.074 | 0.0015 ± 0.0078 | 0.0105 ± 0.00071
3 | SAg:CD40 | -0.0075 ± 0.0064 | -0.024 ± 0.011 | -0.0445 ± 0.036 | -0.013 ± 0.033 | -0.024 ± 0.031 | -0.0055 ± 0.0021 | 0.014 ± 0.023 | -0.093 | -0.0275 ± 0.00071 | -0.017 ± 0.016
4 | SAg:CD62E/E-Selectin | -0.0045 ± 0.005 | -0.008 ± 0.0085 | -0.001 ± 0.024 | -0.017 ± 0.0042 | 0.017 ± 0.014 | 0.004 ± 0.0014 | 0.0265 ± 0.00071 | -0.049 | -0.019 ± 0.013 | 0.003 ± 0.0099
5 | SAg:CD69 | -0.008 ± 0.0028 | -0.013 ± 0.017 | -0.043 ± 0.037 | -0.0405 ± 0.043 | -0.035 ± 0.028 | 0.006 ± 0.03 | -0.0035 ± 0.019 | -0.036 | -0.0045 ± 0.011 | -0.0045 ± 0.028
6 | SAg:CXCL8/IL-8 | -0.0025 ± 0.023 | -0.001 ± 0.014 | 0.049 ± 0.037 | 0.0125 ± 0.0078 | 0.0445 ± 0.0092 | 0.005 ± 0.018 | 0.023 ± 0.0085 | -0.022 | -0.013 ± 0.0085 | 0.032 ± 0.041
7 | SAg:CXCL9/MIG | -0.0105 ± 0.00071 | 0.002 ± 0.014 | -0.002 ± 0.02 | -0.001 ± 0.013 | -0.0025 ± 0.0021 | 0 ± 0.0085 | 0.0085 ± 0.0021 | 0.007 | -0.002 ± 0.0057 | 0.0095 ± 0.016
8 | SAg:PBMC Cytotoxicity | -0.029 ± 0.038 | -0.0315 ± 0.036 | 0.023 ± 0.024 | 0.032 ± 0.028 | 0.0255 ± 0.032 | 0.011 ± 0.021 | 0.003 ± 0.016 | -0.263 | 0.023 ± 0.011 | 0.023 ± 0.017
9 | SAg:Proliferation | -0.0295 ± 0.11 | -0.0385 ± 0.023 | 0.039 ± 0.017 | -0.036 ± 0.033 | 0.02 ± 0.02 | 0.0195 ± 0.011 | 0 ± 0.048 | -0.565 | 0.0125 ± 0.04 | 0.0675 ± 0.03
10 | SAg:SRB | 0.0005 ± 0.0092 | -0.0085 ± 0.0092 | -0.0055 ± 0.013 | -0.003 ± 0.0099 | -0.0105 ± 0.005 | -0.0025 ± 0.0078 | 0.0025 ± 0.018 | -0.084 | 0.0035 ± 0.0078 | -0.004 ± 0.018
